US20250282795A1, “EGFR Inhibitors in cancer treatment” (Celyn Therapeutics, Inc., priority 2022, published 2025)

What was measured:
EGFR (D770_N771insNPG) = EGFR (D770_N771insNPG) (Homo sapiens (Human), UniProt P00533, INS770NPG); assay: Potency of EGFR (D770_N771insNPG) enzymatic activity inhibition (ADP-Glo luminescence); assay type: biochemical; settings: recombinant EGFR (D770_N771insNPG) 1.5 nM, Poly(Glu, Tyr) substrate, ATP, 1 h at rt
Method: Example B. Primary Assay Used to Determine Potency of EGFR (D770_N771insNPG) Enzymatic Activity Inhibition
Compounds activity was determined using recombinant EGFR (D770 N771insNPG) protein (SignalChem, #E10-132GG-10) and Poly(Glu, Tyr) substrate (Sigma-Aldrich, #P0275) in an in vitro enzymatic reaction. The enzymatic assay used to determine activity was a Luminescence assay using a Microplate Reader ClarioStar Plus. The enzymatic reaction was carried out in assay buffer (40 mM TRIS-HCl pH 7.4-7.6, 20 mM MgCl2, 2.5 mM MnCl2, 0.05 mM DTT, 0.1 mg/ml BSA). The compounds were dispensed on a 384 well Diamond Well Plate (Axigen, Cat #P-384-120SQ-C—S) using the Biomek FX liquid handling system at 80× solutions of compounds in DMSO. 2× Protein-Substrate mix (final concentration 1.5 nM of EGFR (D770_N771insNPG) and 50 ng/μl of Poly(Glu, Tyr)) was prepared in 1× Assay buffer and 4 µl of mixture per well was added into 384w white Reaction plate with NBS (Coming, Cat #4513). 4 μl of Poly(Glu, Tyr) substrate w/o EGFR in 1× buffer was used for negative control. Plates were centrifuged for 1 min at 200 g. Next step the Compounds were added to Reaction plate using Biomek station via following steps: 1 μl of 80× compounds (in DMSO) were mixed thoroughly with 39 μl of 2× 10 μM ATP in Assay Buffer, then 4 μl of this mixture was added to Reaction plate with 4 μl of Protein-Substrate mix. Plates were centrifuged for 1 min at 200 g and incubated for 1 h at rt. Next 4 μL of ADP-Glo reagent (Promega, ADP-Glo™ Kinase Assay, Cat #V9102) per well was added. Plates were incubated for 30 min at rt. Then 8 μL of Kinase detection reagent (Promega, ADP-Glo™ Kinase Assay, Cat #V9102) per well was added and the Luminescence was measured using Microplate Reader. The % inhibition was then used to calculate the EC50 values. The values of EC50 shown as a letters A-E, where: A<0.001 μM; 0.001 μM<B<0.005 μM; 0.005 μM<C<0.01 μM; 0.01<D<0.05 μM; E>0.05.

EGFR (WT) = EGFR (WT) (Homo sapiens (Human), UniProt P00533); assay: Potency of EGFR enzymatic activity inhibition (WT) (ADP-Glo luminescence); assay type: biochemical; settings: recombinant EGFR (WT) 4 nM, Poly(Glu, Tyr) substrate, ATP, 1 h at rt
Chain of EGFR (WT) (P00533 25-1210): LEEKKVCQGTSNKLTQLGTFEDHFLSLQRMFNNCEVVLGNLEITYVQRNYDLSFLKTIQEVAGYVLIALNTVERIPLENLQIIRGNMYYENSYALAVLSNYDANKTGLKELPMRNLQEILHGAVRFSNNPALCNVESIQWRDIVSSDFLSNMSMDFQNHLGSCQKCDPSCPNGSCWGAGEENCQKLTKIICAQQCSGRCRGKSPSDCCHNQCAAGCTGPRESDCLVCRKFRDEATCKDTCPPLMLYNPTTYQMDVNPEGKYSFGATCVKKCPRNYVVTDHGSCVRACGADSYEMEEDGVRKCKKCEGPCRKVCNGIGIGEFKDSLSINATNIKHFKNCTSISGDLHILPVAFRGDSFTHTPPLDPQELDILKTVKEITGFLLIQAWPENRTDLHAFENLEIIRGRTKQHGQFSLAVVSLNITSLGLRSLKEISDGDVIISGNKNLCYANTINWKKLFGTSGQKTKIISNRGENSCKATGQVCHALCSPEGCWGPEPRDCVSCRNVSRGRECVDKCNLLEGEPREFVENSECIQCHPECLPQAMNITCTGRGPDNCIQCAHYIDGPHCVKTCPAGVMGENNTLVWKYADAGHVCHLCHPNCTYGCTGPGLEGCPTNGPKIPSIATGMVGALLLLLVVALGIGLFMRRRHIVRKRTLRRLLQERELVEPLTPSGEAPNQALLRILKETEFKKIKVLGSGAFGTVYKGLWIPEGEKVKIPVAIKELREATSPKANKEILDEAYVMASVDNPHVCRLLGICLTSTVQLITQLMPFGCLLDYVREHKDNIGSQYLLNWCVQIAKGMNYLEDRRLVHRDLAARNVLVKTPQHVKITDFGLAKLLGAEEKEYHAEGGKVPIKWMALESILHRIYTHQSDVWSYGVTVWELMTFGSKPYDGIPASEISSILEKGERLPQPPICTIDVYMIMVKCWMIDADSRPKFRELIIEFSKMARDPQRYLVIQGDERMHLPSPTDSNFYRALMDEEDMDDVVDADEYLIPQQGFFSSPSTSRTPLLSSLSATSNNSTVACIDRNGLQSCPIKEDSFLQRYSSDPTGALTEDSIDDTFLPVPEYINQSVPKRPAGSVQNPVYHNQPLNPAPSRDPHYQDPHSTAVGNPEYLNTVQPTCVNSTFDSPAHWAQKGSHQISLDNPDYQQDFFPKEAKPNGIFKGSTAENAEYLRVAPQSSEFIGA
Method: Example D. Primary Assay Used to Determine Potency of EGFR enzymatic activity Inhibition (WT)
Compound activity was determined using recombinant EGFR protein (SignalChem, #E10-112G-10) and Poly(Glu, Tyr) substrate (Sigma-Aldrich, #P0275) in an in vitro enzymatic reaction. The enzymatic assay used to determine activity was a Luminescence assay using a Microplate Reader ClarioStar Plus. The enzymatic reaction was carried out in assay buffer (40 mM TRIS-HCl pH 7.4-7.6, 20 mM MgCl2, 2.5 mM MnCl2, 0.05 mM DTT, 0.1 mg/ml BSA). The compounds were dispensed on a 384 well Diamond Well Plate (Axigen, Cat #P-384-120SQ-C—S) using the Biomek FX liquid handling system at 80× solutions of compounds in DMSO. 2× Protein-Substrate mix (final concentration 4 nM of EGFR and 50 ng/μl of Poly(Glu, Tyr)) was prepared in 1× Assay buffer and 4 μl of mixture per well was added into 384w white Reaction plate with NBS (Coming, Cat #4513). 4 μl of Poly(Glu, Tyr) substrate w/o EGFR in 1× buffer was used for negative control. Plates were centrifuged for 1 min at 200 g. Next step the Compounds were added to Reaction plate using Biomek station via following steps: 1 μl of 80× compounds (in DMSO) were mixed thoroughly with 39 μl of 2× 10 μM ATP in Assay Buffer, then 4 μl of this mixture was added to Reaction plate with 4 μl of Protein-Substrate mix. Plates were centrifuged for 1 min at 200 g and incubated for 1 h at rt. Next 4 μL of ADP-Glo reagent (Promega, ADP-Glo™ Kinase Assay, Cat #V9102) per well was added. Plates were incubated for 30 min at rt. Then 8 μL of Kinase detection reagent (Promega, ADP-Glo™ Kinase Assay, Cat #V9102) per well was added and the Luminescence was measured using Microplate Reader. The % inhibition was then used to calculate the EC50 values. The results for certain compounds are presented in the Table D. The values of EC50 shown as a letters A-E, where: A<0.001 μM; 0.001 μM<B<0.005 μM; 0.005 μM<C<

Ba/F3 (EGFRwt) = assay: Cellular growth inhibition assay (CellTiter-Glo), Ba/F3 (EGFRwt); assay type: cell-based; settings: Mus musculus, BaF3, 72 h; Ba/F3 (Wild type) with 10 ng/ml rhEGF, 3 days of incubation
Method: (§1) Example E. Cellular Growth Inhibition Assay
(§2) Ba/F3(Empty vector) (Signosis), Ba/F3(Wild type) (Signosis), Ba/F3(L^858R+T790M) (Signosis), Ba/F3(A767_dupASV) (Signosis), Ba/F3(D770_N771insSVD) (Signosis), Ba/F3(H773_V774insNPH) (Signosis) were seeded at a density of 4000 cells per well in a CellBIND® 384-well Flat Clear Bottom Black Polystyrene Microplates (Coming, USA, Cat #3770) in 45 μl total volume of RPMI (PanEco, Cat #C330, Russia) with […] (HyClone, Cat #SV30160.03) and with 10 ng/ml rmIL-3 (RD systems, USA, Cat #403-ML-025) (for BaBF3(Empty vector)) and with 10 ng/ml rhEGF (ThermoFisher, USA, Cat #PHG0311L) (for BaCF3(Wild type)). 500× compounds solutions in DMSO (Sigma Cat #D2650) were prepared into Cmpnds plate (DiamondWell Plate, Axigen, Cat #P-384-120SQ-C—S) and DMSO only control was included. 1.l of 500× compounds (Cmpnds plate) was added to 49 µl of culture medium into Dilution plate (Diamond Well Plate, Axigen, Cat #P-384-120SQ-C—S), mixed and then 5 μl of 10× compounds solutions were transferred to cells followed by centrifugation at 100 g for 1 min. Final DMSO concentration was 0.2% o. After 3 days of incubation 10.l of CellTiter-Glo (Promega, CAT #G7572) were added to the cells, plate was centrifuged at 100 g for 1 min and luminescence signal was measured using Microplate Reader (CLARIOStar).

Ba/F3 (L858R + T790M) = assay: Cellular growth inhibition assay (CellTiter-Glo), Ba/F3 (L858R+T790M); assay type: cell-based; settings: Mus musculus, BaF3, 72 h; 3 days of incubation
Method: as §1, §2

Ba/F3 (A767_dupASV) = assay: Cellular growth inhibition assay (CellTiter-Glo), Ba/F3 (A767_dupASV); assay type: cell-based; settings: Mus musculus, BaF3, 72 h; 3 days of incubation; read-out: Ba/F3 (A767_dup ASV) CC50
Method: as §1, §2

Ba/F3 (D770_N771insSVD) = assay: Cellular growth inhibition assay (CellTiter-Glo), Ba/F3 (D770_N771insSVD); assay type: cell-based; settings: Mus musculus, BaF3, 72 h; 3 days of incubation; read-out: Ba/F3 (D770_N771 insSVD) CC50
Method: as §1, §2

Ba/F3 (H773_V774insSVD) = assay: Cellular growth inhibition assay (CellTiter-Glo), Ba/F3 (H773_V774insSVD); assay type: cell-based; settings: Mus musculus, BaF3, 72 h; 3 days of incubation; read-out: Ba/F3 (H773_V774 insSVD) CC50
[1] = Cellular growth inhibition assay (CellTiter-Glo), Ba/F3 (Empty vector); assay type: cell-based; settings: mouse, Ba/F3 cells with empty vector; Ba/F3 (Empty vector) with 10 ng/ml rmIL-3, 3 days of incubation
Method: as §1, §2

Chain of EGFR (D770_N771insNPG) (P00533 other isoform, or with tags, fused parts or gaps del 1-694/ins NPG behind 770 limits assumed): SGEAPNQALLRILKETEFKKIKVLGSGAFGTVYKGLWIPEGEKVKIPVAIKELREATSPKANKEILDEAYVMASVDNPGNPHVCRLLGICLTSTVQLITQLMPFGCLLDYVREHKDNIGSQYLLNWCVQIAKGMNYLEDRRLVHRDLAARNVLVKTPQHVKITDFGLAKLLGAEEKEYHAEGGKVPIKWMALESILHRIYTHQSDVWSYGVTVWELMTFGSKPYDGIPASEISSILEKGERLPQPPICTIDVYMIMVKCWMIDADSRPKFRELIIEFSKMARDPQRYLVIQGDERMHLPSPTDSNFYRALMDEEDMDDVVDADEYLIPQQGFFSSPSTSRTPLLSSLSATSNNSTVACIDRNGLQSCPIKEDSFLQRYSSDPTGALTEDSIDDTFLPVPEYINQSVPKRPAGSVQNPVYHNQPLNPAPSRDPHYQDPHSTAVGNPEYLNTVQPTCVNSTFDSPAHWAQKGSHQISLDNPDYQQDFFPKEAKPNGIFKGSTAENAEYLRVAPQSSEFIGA

Compound	EC50 (EGFR (D770_N771insNPG)) [µM]	EC50 (EGFR (WT)) [µM]	CC50 (Ba/F3 (EGFRwt)) [µM]	CC50 (Ba/F3 (L858R + T790M)) [µM]	CC50 (Ba/F3 (A767_dupASV)) [µM]	CC50 (Ba/F3 (D770_N771insSVD)) [µM]	CC50 (Ba/F3 (H773_V774insSVD)) [µM]	CC50 at 3 days [1] [µM]
COc1c(F)cccc1Nc1c2[nH]c3c1C(=O)NCC3C/C=C/COCCOc1cnccc1-2 (stereo not shown) [Compound 99, (13E)-23-[(3-Fluoro-2-methoxyphenyl)amino]-8,11-dioxa-5,18,22-tniazatetracyclo[18.2.1.0^2,7.0^16′2]tricosa-1(23),2,4,6,13,20-hexaen-19-one]	0.001 to 0.005	0.001 to 0.005	0.01 to 0.1	0.1 to 1	0.001 to 0.01	0.01 to 0.1	0.1 to 1	> 10
COc1c(F)cccc1Nc1c2[nH]c3c1C(=O)NCC3CCCCOCCOc1cnccc1-2 (stereo not shown) [Compound 100, 23-[(3-Fluoro-2-methoxyphenyl)amino]-8,11-dioxa-5,18,22-triazatetracyclo[18.2.1.0^2,7.0^16,21]tricosa-1(23),2,4,6,20-pentaen-19-one]	0.001 to 0.005	≤ 0.001	0.01 to 0.1	0.1 to 1	0.001 to 0.01	0.01 to 0.1	0.01 to 0.1	> 10
COc1c(F)cccc1Nc1c2[nH]c3c1C(=O)NC[C@@H]3CC(=O)N1CCC[C@H]1C(=O)NCCCOc1cnccc1-2 [Compound 147, (16aS,22aS)-23-(3-fluoro-2-methoxyanilino)-14,15,16a,17,18,19,22,22a-octahydro-2H,12H-4,6-(metheno)dipyrido[3,4-k: 4′,3′-o]pyrrolo[2,1-g][1,5,8,13]oxatriazacyclohexadecine-3,16,21(1H,5H,13H)-trione]			> 10	> 10	> 10	> 10	> 10	> 10
COc1c(F)cccc1Nc1c2[nH]c3c1C(=O)NC[C@H]3CC(=O)N1CCC[C@H]1C(=O)NCCCOc1cnccc1-2 [Compound 148, (16aS,22aR)-23-(3-fluoro-2-methoxyanilino)-14,15,16a,17,18,19,22,22a-octahydro-2H,12H-4,6-(metheno)dipyrido[3,4-k: 4′,3′-o]pyrrolo[2,1-g][1,5,8,13]oxatriazacyclohexadecine-3,16,21(1H,5H,13H)-trione]			> 10	> 10	> 10	> 10	> 10	> 10
COc1c(F)cccc1Nc1c2[nH]c3c1C(=O)NCC3CC(=O)N(C)CC(=O)NCCCOc1cnccc1-2 (stereo not shown) [Compound 149, 21-(3-fluoro-2-methoxyanilino)-12-methyl-6,7,8,9,11,12,14,14a,15,16-decahydro-18,20-(metheno)dipyrido[3,4-k: 4′,3′-o][1,5,8,13]oxatriazacyclohexadecine-10,13,17(19H)-trione]			> 10	> 10	1 to 10	1 to 10	> 10	> 10
COc1c(F)cccc1Nc1c2[nH]c3c1C(=O)NCC3CC(=O)NCCOCCOCCOc1cnccc1-2 (stereo not shown) [Compound 150, 23-(3-fluoro-2-methoxyanilino)-6,7,9,10,13,14,16,16a,17,18-decahydro-20,22-(metheno)dipyrido[3,4-m: 4′,3′-q][1,4,7,10,15]trioxadiazacyclooctadecine-15,19(12H,21H)-dione]			> 10	> 10	> 10	> 10	> 10	> 10
COc1c(F)cccc1Nc1c2[nH]c3c1C(=O)NCC3CC(=O)N1CCN(CCOCCOc3cnccc3-2)CC1 (stereo not shown) [Compound 153, 29-(3-Fluoro-2-methoxyanilino)-18,21-dioxa-1,6,10,15,24-pentaazapentacyclo[22.2.2.1^8,110^4,9.0^12,17]nonacosa-8,11(29),12(17),13,15-pentaene-2,7-dione]			> 10	> 10	> 10	> 10	> 10	> 10
COc1c(F)cccc1Nc1c2[nH]c3c1C(=O)NC[C@@H]3CCCN1CCO[C@H](COc3cnccc3-2)C1 [Compound 157, (7S)-21-[(3-Fluoro-2-methoxyphenyl)amino]-6,7,9,10,12,13,14,14a,15,16-decahydro-7,11-methano-18,20-methenodipyrido[3,4-k:4′,3′-o][1,4,7,13]dioxadiazacyclohexadecin-17(19H)-one]			> 10	> 10	> 10	> 10	> 10	> 10
